In patent US10828269B2, “Reducing muscle atrophy by administering astaxanthin” (FUJI CHEMICAL INDUSTRIES CO., LTD., priority 2004, dated 2020):

What was measured:
Assay in all cases: GENEchip mRNA expression in gastrocnemius
Format in all cases: in vivo, rat
neuronatin = conditions: probe 1369999_a_at
Procedure: [The source words this procedure for another organism and reports this organism under the same test.] (§1) After the period of test breeding, kidney was removed and frozen at −80° C. Using an LM200 system (Olympus Corporation), the renal glomerulus was cut from kidney of mice while keeping low temperature. tRNA of renal glomerulus was extracted using tRNA extraction regent “Isogen” (produced by Nippon Gene Co., Ltd.), and then preparation of cRNA and hybridization were performed according to the Affymetrix GeneChip Eukaryotic Small Sample Target Labeling Assay Ver. II.
(§2) (1) Synthesis of first strand cDNA: 1 μL of total RNA solution and 1 of 5 μM T7-Oligo(dT) primer were mixed, heated at 70° C. for 6 minutes, and then cooled at 4° C. for 2 minutes. 3 μL of RT_Premix_1 (1.5 μL DEPC-treated water, 4 μL 5× First strand Buffer, 2 μL DTT (0.1 M), 1.5 μL dNTP Mix (10 mM), 1 μL RNase inhibitor (40 U/μL), and 2 μL Super-Script II (200 U/μL)) was added and reverse transcribed at 42° C. for 1 hour. The sample was heated at 70° C. for 10 minutes to inactivate Super Script II, and then cooled to 4° C. (2) Synthesis of second strand cDNA: 32.5 μl of SS_Premix_1 (91 μL DEPC-treated water, 30 μL 5× Second Strand Buffer, 3 μL dNTP (10 mM), 1 μL E. coli DNA ligase (10 U/μL); 4 μL E. coli DNA polymerase (10 U/μL), and 1 μL RNase H (2 U/μL)) was added to the first strand cDNA solution and allowed to react for 2 hours at 16° C. (3) To the resulting cDNA, was added 1 μL T4 DNA polymerase (5 U/μl) and allowed to react for 10 minutes at 16° C., and purified by ethanol precipitation. (4) In vitro transcription: To the dried double-stranded cDNA pellet, was added 10 μL of reagents (4 μL DEPC-treated water, 4 μL premixed NTPs, 1 μL 10× reaction buffer, and 1 μL 10× enzyme mix), and allowed to react at 37° C. in a water bath for 6 hours. (5) First cycle cRNA was purified using the RNeasy Mini Kit in accordance with the protocol in the handbook (QIAGEN). (6) Subsequently, for the amplification and labeling, the cRNA sample was mixed with random primers (0.2 μg/μL), treated at 70° C. for 10 minutes, cooled on ice for 2 minutes, 5 μL of RT_Premix_2 (5× First Strand Buffer, DTT (0.1 M), dNTP mix (10 mM), RNase inhibitor (40 U/μL), and SuperScript II (200 U/μL) was added, and allowed to react at 42° C. for 1 hour. (7) Next, Second Sstrand cDNA synthesis was carried out by adding 5 μM T7-Oligo(dT) promoter treating at 70° C. for 6 minutes, cooling at 4° C., and adding 62 μL of SS_Premix_2 (43 μL it DEPC-treated water, 15 μL 5× Second Strand Buffer, 1.5 μL dNTP mix (10 mM), and 2 μL E. coli DNA polymerase (10 U/μL)). (8) To the resulting cDNA, was treated added 1 μL of T4 DNA polymerase (5 U/μL), allowed to react at 16° C. for 10 minutes, and purified by ethanol precipitation. (9) To perform in vitro transcription and labeling with the ENZO BioArray High Yield RNA Transcript Labeling Kit, 40 μL of reagents (22 μL DEPC-treated solution, 4 μL 10×HY reaction buffer, 4 μL 10× biotin-labeled ribonucleotides, 4 μL 10×DTT, 4 μL 10× RNase to inhibition mix, and 2 μL 20× T7 RNA polymerase) were added, and allowed to react at 37° C. for 4 hours. (10) Labeled cRNA target was purified with RNeasy columns. (11) The fragmentation and hybridization were performed according to “GeneChip Expression Analysis Technical Manual”.
(§3) The prepared labeled cRNA was hybridized to a GeneChip “mouse Expression Set 430A, representing a total of 22,690 mouse transcripts” (Affymetrix). For data analysis, the GeneChip Analysis Suite Ver. 5.1 (Affymetrix) was used. All microarrays were scaled to a target intensity of 1000 and were compared with background, noise, and overall staining intensity. Differentially expressed transcripts were identified by algorithms of the software y Affymetrix.
(§4) 9-week-old Wistar male rats were bred each being fed a normal diet for breeding and water ad libitum under the conditions with a 12 hours light-dark cycle at a temperature of 21° C. to 25° C. and were accustomed to the environment in advance. […]

[1] = test system: transforming growth factor, beta 2; conditions: probe 1387172_a_at
Procedure: as §1, §2, §3, §4

[2] = test system: murine thymoma viral (v-akt) oncogene homolog 2; conditions: probe 1387353_at
Procedure: as §1, §2, §3, §4

[3] = test system: Protein phosphatase 3, catalytic subunit gamma isoform; conditions: probe 1398469_at
Procedure: [The source words this procedure for another organism and reports this organism under the same test.] as §1, §2, §3, §4

[4] = denervated left leg gastrocnemius, astaxanthin group vs control group
[5] = denervated left leg gastrocnemius, astaxanthin-administered group
[6] = right leg (control) gastrocnemius, astaxanthin group vs control group
[7] = right leg (control) gastrocnemius, astaxanthin-administered group

For `CC1=C(/C=C/C(C)=C/C=C/C(C)=C/C=C/C=C(C)/C=C/C=C(C)/C=C/C2=C(C)C(=O)C(O)CC2(C)C)C(C)(C)CC(O)C1=O` (stereo not drawn) [astaxanthin, 3,3′-dihydroxy-β,β-carotene-4,4′-dione], the “gene expression intensity ratio ad/nd” value (neuronatin; [4]) was 0.61, the luminescence intensity ad (neuronatin; [5]) was 640.7 and the “gene expression intensity ratio ac/nc” value (neuronatin; [6]) was 0.79. The luminescence intensity ac (neuronatin; [7]) was 106.4, the “gene expression intensity ratio ad/nd” value [1, 4] was 0.57 and the luminescence intensity ad [1, 5] was 677.8. The “gene expression intensity ratio ac/nc” value [1, 6] was 1.06, the luminescence intensity ac [1, 7] was 479.9 and the “gene expression intensity ratio ad/nd” value [2, 4] was 0.67. The luminescence intensity ad [2, 5] was 1042.6, the “gene expression intensity ratio ac/nc” value [2, 6] was 0.83 and the luminescence intensity ac [2, 7] was 715.4. The “gene expression intensity ratio ad/nd” value [3, 4] was 1.90, the luminescence intensity ad [3, 5] was 333.1 and the “gene expression intensity ratio ac/nc” value [3, 6] was 1.09. The luminescence intensity ac [3, 7] was 523.6.
